# Laboratory results as given in patent US9284321B2, “Piperazino[1,2-a]indol-1-ones and [1,4]diazepino[1,2-a]indol-1-one” (Hoffmann-La Roche Inc., priority 2012, dated 2016).
# Key:
# [1] = test system: human embryonic stem cell derived neural stem cells (NSCs); experiment: Neural Stem Cell Proliferation Assay (neurogenesis assay, ATP levels by CellTiterGlo); format: cell-based; conditions: 96 h, compound concentration at which 150% activity of control (100%) is reached, NSC proliferation by ATP level after 4 days incubation, dose response 8 μM to 8 nM
# Experimental: Neurogenic properties of small molecules are determined based on the proliferation of human embryonic stem cell derived neural stem cells (NSCs) which were derived via a dual smad inhibition as previously described (Chambers, S. M., et al., Highly efficient neural conversion of human ES and iPS cells by dual inhibition of SMAD signaling, Nature biotechnology, 2009. 27(3): p. 275-80.)
# Compounds respond is measured by the increase in cells based on ATP levels
# (Promega:CellTiterGlo®) after an incubation period of 4 days.
# NSCs are thawed and expanded over 3 passages. On the 14th day, NSCs are seeded in Polyornithin/Laminin coated 384 well plates at a cell density of 21′000 cells/cm^2 in a media volume of 38 μl.
# 4 hours after cell seeding, compound solutions are added at a volume of 2 μl. Stock solutions of the compounds (water, 5% DMSO) are diluted to obtain a dose response (11 points, dilution factor is 2), ranging from 8 μM to 8 nM. Controls are run to consistently determine the neurogenic properties of the cells:
# Negative (neutral) control is cell culture Media (final DMSO concentration: 0.25%).
# • 1. cell culture Media+100 ng/ml FGF2 (final DMSO concentration: 0.1%) • 2. cell culture Media+20 ng/ml EGF (final DMSO concentration: 0.1%) • 3. cell culture Media+100 ng/ml Wnt3a (final DMSO concentration: 0.1%)
# After 4 days incubation at 37° C., 5% CO2, the amount of ATP per well is quantified. The ATP concentration is proportional to the cell number. ATP is quantified by using the Promega CellTiterGlo® kit. The CellTiterGlo® reagents contain a cell lysis buffer, a thermo stable luciferase (UltraGlo™ recombinant luciferase), magnesium and luciferin. Luciferin reacts with ATP producing oxyluciferin, AMP and light. The luminescence signal is proportional to the ATP content.
# The value of negative (neutral) control is determined for each assay plate by taking the average of 16 negative control wells. The neurogenic compound response is calculated for each compound as (compound/Negative Control)*100.
# The values of EC150 from the dose response curve are determined for each test compound. The EC150 is the compound concentration at which 150% activity of control (100%) is reached.
melting point,SMILES,EC (150% of control) [1]
274.5 °C,"COc1ccc(-c2cc(F)cc3cc4n(c23)CCNC4=O)cc1 [Example 19, 8-Fluoro-6-(4-methoxy-phenyl)-3,4-dihydro-2H-pyrazino[1,2-a]indol-1-one]",0.007 µM
309 °C,"O=C1NCCCn2c1cc1cc(F)cc(-c3ccncc3)c12 [Example 20, 9-Fluoro-7-pyridin-4-yl-2,3,4,5-tetrahydro-[1,4]diazepino[1,2-a]indol-1-one]",0.037 µM
323.5 °C,"O=C1NCCn2c1cc1cc(F)cc(-c3ccncc3)c12 [Example 21, 8-Fluoro-6-pyridin-4-yl-3,4-dihydro-2H-pyrazino[1,2-a]indol-1-one]",0.036 µM
289.5 °C,"O=C1NCCn2c1cc1cc(F)cc(-c3ccc(F)c(F)c3)c12 [Example 22, 6-(3,4-Difluoro-phenyl)-8-fluoro-3,4-dihydro-2H-pyrazino[1,2-a]indol-1-one]",0.037 µM
322 °C,"O=C1NCCn2c1cc1cc(F)cc(-c3ccc(Cl)cc3)c12 [Example 23, 6-(4-Chloro-phenyl)-8-fluoro-3,4-dihydro-2H-pyrazino[1,2-a]indol-1-one]",0.019 µM
271.5 °C,"Cc1ccc(-c2cc(F)cc3cc4n(c23)CCNC4=O)cc1 [Example 24, 8-Fluoro-6-p-tolyl-3,4-dihydro-2H-pyrazino[1,2-a]indol-1-one]",0.017 µM
346 °C,"O=C1NCCn2c1cc1cc(F)cc(-c3ccc(C(F)(F)F)cc3)c12 [Example 25, 8-Fluoro-6-(4-trifluoromethyl-phenyl)-3,4-dihydro-2H-pyrazino[1,2-a]indol-1-one]",0.023 µM
230.5 °C,"O=C1NCCCn2c1cc1cc(F)cc(-c3ccc(F)c(F)c3)c12 [Example 28, 7-(3,4-Difluoro-phenyl)-9-fluoro-2,3,4,5-tetrahydro-[1,4]diazepino[1,2-a]indol-1-one]",0.1 µM
263.5 °C,"O=C1NCCCn2c1cc1cc(F)cc(-c3ccc(Cl)cc3)c12 [Example 29, 7-(4-Chloro-phenyl)-9-fluoro-2,3,4,5-tetrahydro-[1,4]diazepino[1,2-a]indol-1-one]",0.03 µM
258.5 °C,"Cc1ccc(-c2cc(F)cc3cc4n(c23)CCCNC4=O)cc1 [Example 30, 9-Fluoro-7-p-tolyl-2,3,4,5-tetrahydro-[1,4]diazepino[1,2-a]indol-1-one]",0.036 µM
257 °C,"O=C1NCCCn2c1cc1cc(F)cc(-c3ccc(C(F)(F)F)cc3)c12 [Example 31, 9-Fluoro-7-(4-trifluoromethyl-phenyl)-2,3,4,5-tetrahydro-[1,4]diazepino[1,2-a]indol-1-one]",0.056 µM
283.5 °C,"O=C1NCCn2c1cc1c(F)c(F)cc(-c3ccc(F)cc3)c12 [Example 32, 8,9-Difluoro-6-(4-fluoro-phenyl)-3,4-dihydro-2H-pyrazino[1,2-a]indol-1-one]",2.6 µM
227.5 °C,"COc1ccc(-c2cc(F)c(F)c3cc4n(c23)CCNC4=O)cc1 [Example 33, 8,9-Difluoro-6-(4-methoxy-phenyl)-3,4-dihydro-2H-pyrazino[1,2-a]indol-1-one]",0.22 µM
327 °C,"O=C1NCCn2c1cc1c(F)c(F)cc(-c3ccc(Cl)cc3)c12 [Example 34, 6-(4-Chloro-phenyl)-8,9-difluoro-3,4-dihydro-2H-pyrazino[1,2-a]indol-1-one]",1.4 µM
317.5 °C,"O=C1NCCn2c1cc1c(F)c(F)cc(-c3ccc(F)c(F)c3)c12 [Example 35, 6-(3,4-Difluoro-phenyl)-8,9-difluoro-3,4-dihydro-2H-pyrazino[1,2-a]indol-1-one]",2.6 µM
287 °C,"O=C1NCCCn2c1cc1c(F)c(F)cc(-c3ccc(F)cc3)c12 [Example 36, 9,10-Difluoro-7-(4-fluoro-phenyl)-2,3,4,5-tetrahydro-[1,4]diazepino[1,2-a]indol-1-one]",3.9 µM

melting point,SMILES,EC (150% of control) [1]
207.5 °C,"COc1ccc(-c2cc(F)c(F)c3cc4n(c23)CCCNC4=O)cc1 [Example 37, 9,10-Difluoro-7-(4-methoxy-phenyl)-2,3,4,5-tetrahydro-[1,4]diazepino[1,2-a]indol-1-one]",0.45 µM
286.5 °C,"O=C1NCCn2c1cc1cc(F)c(F)c(-c3ccc(F)cc3)c12 [Example 38, 7,8-Difluoro-6-(4-fluoro-phenyl)-3,4-dihydro-2H-pyrazino[1,2-a]indol-1-one]",0.03 µM
274.5 °C,"COc1ccc(-c2c(F)c(F)cc3cc4n(c23)CCNC4=O)cc1 [Example 39, 7,8-Difluoro-6-(4-methoxy-phenyl)-3,4-dihydro-2H-pyrazino[1,2-a]indol-1-one]",0.005 µM
223.5 °C,"O=C1NCCCn2c1cc1cc(F)c(F)c(-c3ccc(F)cc3)c12 [Example 40, 8,9-Difluoro-7-(4-fluoro-phenyl)-2,3,4,5-tetrahydro-[1,4]diazepino[1,2-a]indol-1-one]",0.024 µM
182.5 °C,"COc1ccc(-c2c(F)c(F)cc3cc4n(c23)CCCNC4=O)cc1 [Example 41, 8,9-Difluoro-7-(4-methoxy-phenyl)-2,3,4,5-tetrahydro-[1,4]diazepino[1,2-a]indol-1-one]",0.006 µM
225 °C,"O=C1NCCCn2c1cc1cc(F)c(F)c(-c3ccc(F)c(F)c3)c12 [Example 42, 7-(3,4-Difluoro-phenyl)-8,9-difluoro-2,3,4,5-tetrahydro-[1,4]diazepino[1,2-a]indol-1-one]",0.21 µM
232.5 °C,"O=C1NCCCn2c1cc1cc(F)c(F)c(-c3ccc(Cl)cc3)c12 [Example 43, 7-(4-Chloro-phenyl)-8,9-difluoro-2,3,4,5-tetrahydro-[1,4]diazepino[1,2-a]indol-1-one]",0.08 µM
305 °C,"O=C1NCCn2c1cc1cc(F)c(F)c(-c3ccc(F)c(F)c3)c12 [Example 44, 6-(3,4-Difluoro-phenyl)-7,8-difluoro-3,4-dihydro-2H-pyrazino[1,2-a]indol-1-one]",0.3 µM
332.5 °C,"O=C1NCCn2c1cc1cc(F)c(F)c(-c3ccc(Cl)cc3)c12 [Example 45, 6-(4-Chloro-phenyl)-7,8-difluoro-3,4-dihydro-2H-pyrazino[1,2-a]indol-1-one]",0.076 µM
230.5 °C,"O=C1NCCCn2c1cc1cc(Cl)cc(-c3ccc(F)c(F)c3)c12 [Example 46, 9-Chloro-7-(3,4-difluoro-phenyl)-2,3,4,5-tetrahydro-[1,4]diazepino[1,2-a]indol-1-one]",0.69 µM
227 °C,"Cc1ccc(-c2cc(Cl)cc3cc4n(c23)CCCNC4=O)cc1 [Example 47, 9-Chloro-7-p-tolyl-2,3,4,5-tetrahydro-[1,4]diazepino[1,2-a]indol-1-one]",0.6 µM
260 °C,"O=C1NCCCn2c1cc1cc(Cl)cc(-c3ccc(F)cc3)c12 [Example 48, 9-Chloro-7-(4-fluoro-phenyl)-2,3,4,5-tetrahydro-[1,4]diazepino[1,2-a]indol-1-one]",0.43 µM
320 °C,"O=C1NCCn2c1cc1cc(Cl)cc(-c3ccc(Cl)cc3)c12 [Example 49, 8-Chloro-6-(4-chloro-phenyl)-3,4-dihydro-2H-pyrazino[1,2-a]indol-1-one]",0.045 µM
277.5 °C,"O=C1NCCn2c1cc1cc(Cl)cc(-c3ccc(F)c(F)c3)c12 [Example 50, 8-Chloro-6-(3,4-difluoro-phenyl)-3,4-dihydro-2H-pyrazino[1,2-a]indol-1-one]",0.13 µM
298 °C,"O=C1NCCn2c1cc1cc(Cl)cc(-c3ccc(F)cc3)c12 [Example 51, 8-Chloro-6-(4-fluoro-phenyl)-3,4-dihydro-2H-pyrazino[1,2-a]indol-1-one]",0.098 µM
282.5 °C,"COc1ccc(-c2cc(Cl)cc3cc4n(c23)CCNC4=O)cc1 [Example 52, 8-Chloro-6-(4-methoxy-phenyl)-3,4-dihydro-2H-pyrazino[1,2-a]indol-1-one]",0.022 µM
